This note sets out measurements from patent US20120101104A1, “TOPICAL GEL COMPOSITIONS AND METHODS OF USE” (GALDERMA S.A., priority 2010, published 2012).

Data set [1] can be described thus: Microscopic observation of gel compositions for methylparaben crystalline particles. The class given is physicochemical. The protocol: Microscopic observations were performed on additional representative batches of brimonidine topical gel compositions and placebo gel compositions containing 1.25% (w/w) carbomer, POBM and other ingredients. The observations have been done on one tube of each batch, with the microscope Axiolab DRBKT Zeiss no. 023733.01 with a camera ICC Zeiss or the microscope Olympus BX60. The microscopic observations were done at 5° C. and room temperature.
Numerous formulations with different ingredients and varying concentrations of the ingredients were made and tested for the presence of the paraben crystals by microscopic observations. The microbiological quality of the formulations was also analyzed by using acceptance-test criteria in preservative-efficacy testing (PET) in the United States Pharmacopeia (USP) and the European Pharmacopoeia (EP).

Data set [2] can be described thus: Methylparaben concentration in supernatant after centrifugation of a batch with crystals. The class given is physicochemical. The protocol: Centrifugation was performed on the batch to collect crystals at the bottom of the centrifuge tube, thus removing them from the supernatant.

With `COC(=O)c1ccc([O-])cc1.[Na+]` [Na POBM], the “crystalline particles in formulation” value in data set [1] (methylparaben replaced with Na POBM at 0.3% (w/w)) is reported as “crystalline particles of Na POBM were still observed”.

Turning to `COC(=O)c1ccc(O)cc1` [methylparaben], the “supernatant methylparaben as share of the 0.3% (w/w) in the original formulation” value in data set [2] (batch originally containing 0.3% (w/w) methylparaben) is reported as “about 66%”. For the same compound, the “methylparaben concentration in the supernatant” value in data set [2] (batch originally containing 0.3% (w/w) methylparaben with crystals, after centrifugation) is “about 0.2 % (w/w)”. The recrystallization in formulation result in data set [1] (0.3% (w/w) POBM, addition of 0.1% of EDTA) is “immediate recrystallization”.
